In US20150010928A1, “MEANS AND METHODS FOR ASSESSING AN ENDOCRINE DISEASE OR DISORDER” (priority 2012, published 2015):
Marks after values point to notes of the source that are not given here. Values belong to the molecule of their own block, whether it stands above or below them.

System: male rats
Experiment: Plasma metabolite profiling (GC-MS, LC-MS, SPE-LC-MS) in male rats dosed once daily over 28 days (OECD 407)
Format: in vivo, rat
Conditions: high dose; for Alanine, ratio versus control / Androstenedione, ratio versus control / Cholesterol, ratio versus control / Glycine, ratio versus control / Heptadecanoic acid (C17:0), ratio versus control / Testosterone, ratio versus control / Threonine, ratio versus control / Uric acid, ratio versus control / alpha-Tocopherol, ratio versus control: male rats, plasma; for Cholesterol / Choline plasmalogen No 02 / Lignoceric acid (C24:0) / Sphingomyelin (d18:1, C16:0) / Sphingomyelin (d18:2, C16:0) / erythro-Sphingosine (d18:1): Table 14b
Description: Each dose group in the studies consisted of five rats per sex. Additional groups of each 5 male and female animals served as controls. […] All animals of the animal population were kept under the same constant temperature (20-24±3° C.) and the same constant humidity (30-70%). The animals of the animal population were fed ad libitum. The food to be used was essentially free of chemical or microbial contaminants. Drinking water was also offered ad libitum. Accordingly, the water was free of chemical and microbial contaminants as laid down in the European Drinking Water Directive 98/83/EG. The illumination period was 12 hours light followed by 12 hours darkness (12 hours light, from 6:00 to 18:00, and 12 hours darkness, from 18:00 to 6:00). […] The test substances (compounds) in the Tables 1 to 17 below were dosed and administered as described in the Table 18.
In the morning of day 7, 14, and 28, blood was taken from the retroorbital venous plexus from fasted anaesthetized animals. From each animal, 1 ml of blood was collected with EDTA as anticoagulant. The samples were centrifuged for generation of plasma. All plasma samples were covered with a N2 atmosphere and then stored at −80° C. until analysis.
For mass spectrometry-based metabolite profiling analyses plasma samples were extracted and a polar and a non-polar (lipid) fraction was obtained. For GC-MS analysis, the non-polar fraction was treated with methanol under acidic conditions to yield the fatty acid methyl esters. Both fractions were further derivatised with O-methyl-hydroxyamine hydrochloride and pyridine to convert Oxogroups to O-methyloximes and subsequently with a silylating agent before analysis. In LC-MS analysis, both fractions were reconstituted in appropriate solvent mixtures. HPLC was performed by gradient elution on reversed phase separation columns. Mass spectrometric detection which allows target and high sensitivity MRM (Multiple Reaction Monitoring) profiling in parallel to a full screen analysis was applied as described in WO2003073464.
Steroids and their metabolites were measured by online SPE-LC-MS (Solid phase extraction-LC-MS).
Following comprehensive analytical validation steps, the data for each analyte were normalized against data from pool samples. These samples were run in parallel through the whole process to account for process variability. The significance of treatment group values specific for sex, treatmentduration and metabolite was determined by comparing means of the treated groups to the means of the respective untreated control groups using WELCH-test and quantified with treatment ratios versus control and p-values.
The identification of the most important biomarkers per toxicity pattern was done by a ranking of the analytes in the tables below. Therefore the metabolic changes in reference treatments of a given pattern (shown in the table) were compared with changes of the same metabolite in other unrelated treatments. […] The maximum absolute value of the respective TVALUE was taken to indicate the most important metabolite for the pattern.

SMILES: CC(=O)O[C@]1(C(C)=O)CC[C@H]2[C@@H]3C[C@H](C)C4=CC(=O)CC[C@]4(C)[C@H]3CC[C@@]21C [Medroxyprogesterone acetat]
Alanine, ratio versus control (day 7): 0.73 *
Androstenedione, ratio versus control (day 7): 1.68
Cholesterol, ratio versus control (day 7): 0.9
Glycine, ratio versus control (day 7): 1.05 *
Heptadecanoic acid (C17:0), ratio versus control (day 7): 0.98
Testosterone, ratio versus control (day 7): 2
Threonine, ratio versus control (day 7): 0.82 *
Uric acid, ratio versus control (day 7): 0.6 *
alpha-Tocopherol, ratio versus control (day 7): 0.82 *
Alanine, ratio versus control (day 14): 0.97
Androstenedione, ratio versus control (day 14): 0.28 *
Cholesterol, ratio versus control (day 14): 0.69 *
Glycine, ratio versus control (day 14): 1.06
Heptadecanoic acid (C17:0), ratio versus control (day 14): 0.92
Testosterone, ratio versus control (day 14): 0.22 *
Threonine, ratio versus control (day 14): 1
Uric acid, ratio versus control (day 14): 1.07
alpha-Tocopherol, ratio versus control (day 14): 0.82 *
Androstenedione, ratio versus control (day 28): 0.1 *
Testosterone, ratio versus control (day 28): 0.08 *

Cholesterol (m7): 0.45
Choline plasmalogen No 02 (m7): 0.59
Lignoceric acid (C24:0) (m7): 0.49
Sphingomyelin (d18:1, C16:0) (m7): 0.41
Sphingomyelin (d18:2, C16:0) (m7): 0.49
erythro-Sphingosine (d18:1) (m7): 0.28
Cholesterol (m14): 0.51
Choline plasmalogen No 02 (m14): 0.6
Lignoceric acid (C24:0) (m14): 0.63
Sphingomyelin (d18:1, C16:0) (m14): 0.63
Sphingomyelin (d18:2, C16:0) (m14): 0.52
erythro-Sphingosine (d18:1) (m14): 0.41
Cholesterol (m28): 0.51
Choline plasmalogen No 02 (m28): 0.68
Lignoceric acid (C24:0) (m28): 0.63
Sphingomyelin (d18:1, C16:0) (m28): 0.6
Sphingomyelin (d18:2, C16:0) (m28): 0.6
erythro-Sphingosine (d18:1) (m28): 0.42
SMILES: CC/C(=C(\c1ccccc1)c1ccc(OCCN(C)C)cc1)c1ccccc1 [Tamoxifen]

SMILES: CC1(C)CCC(=Cc2ccc(Cl)cc2)C1(O)Cn1cncn1 (stereo not drawn) [Triticonazole]
Glycerol, polar fraction (m7, male rats, Table 16): 1.03
Testosterone (m7, male rats, Table 16): 0.55 *
Testosterone (m14, male rats, Table 16): 1.03
Testosterone (m28, male rats, Table 16): 0.23 *
